Results as given in patent US20040229791A1, “Compositions and methods of modulating TGF-beta activity by fatty acids” (priority 2002, published 2004).

Test system: p3TP-Lux in transfected Mv1Lu cells
Assay: Luciferase assay, p3TP-Lux TGF-β-responsive promoter construct
Type: cell-based, mink
Settings: for reversal of α2M* inhibition of TGF-β2-induced luciferase activity: 200 μg/ml α2M*
Procedure: One of the prominent biological activities of TGF- ? is transcriptional activation of plasminogen activator inhibitor-1 (PAI-1) and fibronectin (1-4). The effect of fatty acids on the inhibition by. α2M* of a TGF- ? -responsive promoter construct p3TP-Lux was determined in transfected Mv1Lu cells. The p3TP-Lux contains the PAI-1 promoter and 3 repeats of a phorbol-12-myristate-13-acetate (TPA)-responsive element (29).
Luciferase Assay—Mv1Lu cells which had been plated on 12-well clustered dishes at a cell density of approximately 0.8-1.0×10^5 cells/plate were transfected with 4-6 μg of p3TP-Lux using the calcium phosphate method (24). After 12 hr, the transfected cells were washed with phosphate buffered saline and allowed to grow in a medium containing 10% fetal calf serum for 12 hr. The medium was changed to DMEM with low serum concentration (0.2% fetal calf serum) and the cells were incubated for 4-6 hr. The cells were then treated for 20 hr with TGF-.β2 (0, 50 or 100 pM), α2M* (0 or 200 μg/ml) and arachidonic acid (0, 12.5 or 25 μM) in the same low-serum medium. The cells were harvested and assayed for luciferase activity using the Promega kit according to the manufacturer's protocol. The luciferase activity was assayed in triplicate cell cultures and measured as arbitrary units (A.U.).

Structure (SMILES): CCCCC/C=C\C/C=C\C/C=C\C/C=C\CCCC(=O)O [arachidonic acid]
- reversal of α2M* inhibition of TGF-β2-induced luciferase activity (12.5 μM arachidonic acid): completely reversed
- reversal of α2M* inhibition of TGF-β2-induced luciferase activity (25 μM arachidonic acid): completely reversed
- effect on luciferase activity in cells treated with and without TGF-β2 in the absence of α2M* (12.5 and 25 μM, absence of α2M*): did not influence the luciferase activity
